In assay [1] the target is T1, AlfC (Lacticaseibacillus paracasei, UniProt A0A422MHI3).
T1 construct: gene BN194_28780; 6xHis-AlfC from E. coli DH10B with pQEalfC, purified as earlier published
T1 sequence (A0A422MHI3 1-344): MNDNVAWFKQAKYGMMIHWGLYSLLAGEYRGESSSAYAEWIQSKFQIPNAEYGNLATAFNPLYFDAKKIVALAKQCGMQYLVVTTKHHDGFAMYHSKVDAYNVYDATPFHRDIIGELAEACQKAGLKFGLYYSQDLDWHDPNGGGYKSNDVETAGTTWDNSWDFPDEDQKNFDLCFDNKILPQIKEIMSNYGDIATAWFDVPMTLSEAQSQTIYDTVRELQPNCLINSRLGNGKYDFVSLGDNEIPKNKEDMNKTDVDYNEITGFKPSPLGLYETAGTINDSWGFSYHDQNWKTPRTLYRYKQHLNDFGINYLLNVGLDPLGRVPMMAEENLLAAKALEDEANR
Briefly: transfucosylation, product by HPLC and NMR. The conditions noted are these: acceptor, 100 mM; donor 50 mM pNP-fuc; 100 mM Tris-HCl pH 7.0, 42°C. The format is biochemical.

Assay [2] deals with His-tagged AsnA2, N(4)-(β-N-acetylglucosaminyl)-L-asparaginase (glycosylasparaginase) of Lactobacillus casei BL23 (Lactobacillus casei BL23). Briefly: SEC; size exclusion chromatography of purified His-tagged AsnA2 on a HiPrep 16/60 Sephacryl S-300 HR column, calibrated with five standard proteins; native molecular weight estimated.

The values that follow come from paper PMC6960285, “Unique Microbial Catabolic Pathway for the Human Core N-Glycan Constituent Fucosyl-α-1,6-N-Acetylglucosamine-Asparagine” (mBio, 2020).

As for `CC(=O)N[C@@H]1[C@@H](O)[C@H](O)[C@@H](CO)O[C@H]1NC(=O)C[C@H](N)C(=O)O` [GlcNAc-Asn], the “transfucosylation, product by HPLC and NMR” value in assay [1] is “the ability of AlfC to use GlcNAc-Asn as the acceptor was tested”.
The stoichiometry N is the number of molecules, sites or subunits per partner or assembly. For “His-tagged AsnA2, N(4)-(β-N-acetylglucosaminyl)-L-asparaginase (glycosylasparaginase) of Lactobacillus casei BL23 (enzyme)”, the stoichiometry N in assay [2] was 2.
